Results taken from patent US8962263B2, “Methods and compositions for detecting the activation state of multiple proteins in single cells” (The Board of Trustees of the Leland Stanford Junior …, priority 2001, dated 2015).
Each block holds one compound with its values, some of them ahead of it.

Assays:
p44/42 MAPK = test: intracellular phospho-p44/42 MAPK by flow cytometry in ICAM-2 treated Jurkat cells; assay type: cell-based, human; conditions: chemical agents 10 μM, EDTA 1 mM; mAbs titrated prior to ICAM-2
Source text: A) Mean fluorescent intensity values (MFI) of ICAM-2-FITC (adhesion) and mAb24-Alexa633, (LFA-1, activation) in treated Jurkat cells (as above). Control unstimulated and/or compound pretreated values were subtracted. B) Top panel: Intracellular phospho-p44/42, MAPK detection as a function of ICAM-2, dose in Jurkat cells by flow cytometry (see Material and Methods). Mean fluorescent intensity values (MFI) were plotted±standard deviation (SD). Bottom panel: ICAM-2, treated Jurkat cells were stained for intracellular phospho-p44/42, MAPK as described above. mAbs to β2, and αL, integrins (10, μg/ml, 10, minutes) were titrated prior to ICAM-2, treatment as indicated and plotted for MFI±SD. C) ICAM-2, induced p44/42, MAPK activity is blocked by β2, and αL, integrin antibodies as determined by a p44/42 MAPK kinase assay. Conditions for induction and inhibition are as described above. Recombinant active p44/42, MAPK served as an internal positive control (denoted by “+”). D) Inhibition and activation profile for intracellular phospho-p44/42, by flow cytometry in the presences of chemical agents (10, μM), EDTA (1, mM), or PMA, ionomycin and ICAM-2, stimulus (as indicated above). MFI values±SD are plotted.
(§1) Intracellular and extracellular staining was performed as described (Perez and Nolan, 2002). Intracellular probes for active kinases were made by conjugating phospho-specific antibodies to the ALEXA FLUOR® dye series as described and used in phospho-protein optimized conditions (Perez and Nolan, 2002). Kinetic analyses was performed by direct application of fixation buffer in time synchronized 96-wells maintained at 37° C. Intracellular actin and microtubule staining was performed using phalloidin-Alexa633 and taxol-Alexa546 dyes (Molecular Probes). Adhesion and clustering assays were performed using ICAM-2-FITC as described in text. LFA-1 activation was assessed by either mAb24-Alexa633 or mAb24-Alexa546 conjugate, surface stained at 37° C. Flow cytometry data are representative of 3 independent experiments of 10^6 cells/sample. 10-50,000 events were collected and manually calibrated on a FACSCalibur™ machine. Data plotted in bar graph format is expressed as geometric mean fluorescence intensity (MFI) and normalized for isotype controls. Log ratios are defined as the MFI of stimulus to the MFI of unstimulated cells. Data was analyzed using Flowjo™ software (Treestar).

NIH3T3 = test: staurosporine induced apoptosis in ICAM-2 transduced NIH3T3 (annexin-V binding, BrdU TUNEL); assay type: cell-based, murine; conditions: for effect on ICAM-2 anti-apoptotic effect, other kinase inhibitors: cell type not stated, data not shown
Protocol: A) Pharmacological inhibitors of PI3K abrogate ICAM-2's anti-apoptotic. ICAM-2, or vector transduced BaF3, cells were treated with staurosporine (1, μM) with (unfilled) or without (filled) the addition of 100, nM wortmannin for 24, hours (left bar graph). Apoptosis was determined by nuclear staining and fluorescence microscopy (left bar graph) and by annexin-V binding assay (right bar graph). The proportion of apoptotic cells in each culture without staurosporine was 8%+/−2. The percentage of apoptotic cells is expressed as the mean (bar)+SD of triplicate cultures. ICAM-2, 1CAM2-AC, or vector transduced NIH3T3, were treated with staurosporine ([…]) in the presence or absence of 10, μM LY294002, for 24, hours (right bar graph). DMSO vehicle served as negative control. The percentage of apoptotic cells is expressed as the mean (bar)+/−SD of triplicate cultures. B) Confocal images of PI3K and AKT localization in ICAM-2, (top) or vector control cells (bottom). C) Confocal images of ezrin and the p85, subunit of PI3K (green) localization in ICAM-2, (top) or vector control cells (bottom).
A) The anti-apoptotic effect of ICAM-2, is both wortmannin and LY294002, sensitive. ICAM-2, or vector transduced BaF3, cells were treated with staurosporine (1, μM) with (unfilled) or without (filled) the addition of 100, nM wortmannin for 24 hours. Apoptosis was determined by nuclear staining and fluorescence microscopy (left bar graph) and by annexin-V binding assay (right bar graph). The proportion of apoptotic cells in each culture without staurosporine was 8%±2. The percentage of apoptotic cells is expressed as the mean (bar)±SD of triplicate cultures. ICAM-2, ICAM2-ΔC, or vector transduced NIH3T3, were treated with staurosporine (1, μM) in the presence or absence of 10, μM LY294002, for 24, hours. DMSO vehicle served as negative control. The percentage of apoptotic cells is expressed as the mean (bar)±SD of triplicate cultures. B) ICAM-2, expressing NIH3T3, cells are sensitive to apoptosis in the presence of PI3K inhibitor LY294002. BrdU TUNEL assay was performed in staurosporine (1, μM) or LY294002, (10, μM) treated ICAM-2, ICAM2-ΔC, and control vector transduced NIH3T3, cells. The percentage of apoptotic cells is expressed as the mean (bar)±SD of triplicate cultures.
Apoptosis was determined either by counting pyknotic nuclei, annexin-V binding by flow cytometry, or TUNEL BrdU staining by flow cytometry as indicated. Apoptosis was induced either by staurosporine (1 μm), treatment with anti-mouse Fas (5 μq/ml Santa Cruz Biotechnology (SCB), […] Fas (5 μg/ml Jo2 Biomed) or anti-human Fas (10 ng/ml CH11 Kamiya Biomedical) as indicated in appropriate experiment, IL-3 withdrawal-(24 hrs) or as indicated. For pyknolic nuclei count, NIH3T3 cells were grown on glass coverslips and assayed for apoptosis. Suspension cells were analyzed by nuclear staining with 25 μM acridine orange/25 μm ethidium bromide or 5 μg/ml Hoechst 33342 (Molecular Probes, Eugene, Oreg.). Apoptosis was identified by the presence of characteristic pyknotic nuclei as described (Jacobson and Raff, 1995). At least 5 individual fields were photographed and counted using a Zeiss axioscope fluorescence microscope. For the survival assay 10^6 NIH3T3 cells were plated in 10 cm dishes and incubated overnight at 37° C. The cells were treated with 1 μM staurosporine for 24 hours. The cells were washed and cultured for 24 hours in complete medium. The cells were trypsinized and viable cells counted following trypan blue staining. Untreated cells were counted at the time of treatment. % survival represents (number of viable cells post-treatment)/(number of viable cells pretreatment). FACS based annexin-V-FITC/PI staining was done as described (PharMingen). TUNEL assay was performed as described by manufacturer of Apoptosis BrdU kit (Promega). […]

LFA-1 [1] = test: LFA-1 activation by mAb24-Alexa633 staining, flow cytometry; assay type: cell-based, human; conditions: Jurkat cells; agents 10 μM 30 min, PMA 1 μg/ml, prior to ICAM-2 10 μg/ml 30 min
Protocol: A) Confocal microscopy of actin and microtubule architecture upon ICAM-2, stimulus (10, μg/ml, 30, min) in Jurkat cells. Actin was stained by phalloidin-alexa633, and tubulin by taxol-alexa546. Inserts display enlarged cell image of representative treatment B) Flow cytometric staining for actin and microtubules as described above. C) Left: Fluorescence topography analysis of ICAM-2-FITC (1 μg/ml, time as indicated) surface distribution. Intensity color gradient depicts high and low fluorescent intensity values. Right: Confocal microscopy of ICAM-2-FITC surface binding (10 μg/ml, 30, min) and anti-β2-alexa568, (clone CTB104). D) Staining for ICAM-2-FITC surface binding (fluorescence intensity) and surface distribution (fluorescence pulse) in cytochalisin D treated Jurkat cells at 37° C. and 4° C. by flow cytometry. E) Values for ICAM-2-FITC fluorescence intensity per time-of-flight per cell as described in text. F) Flow cytometric staining for LFA-1 activation by mAb24-alexa633. Stimuli as indicated (10, μM, 30, min), PMA (1, μg/ml) prior to ICAM-2, stimulation (10, μg/ml, 30, min). Staining was performed at 37° C. G) Mean fluorescence intensity (MFI) values of mAb24-633, and ICAM-2, cluster values, computed as described above, as a function of time.
as §1

Pyk2 = test: sICAM-2 induced Pyk2 phosphorylation (phospho-tyrosine based ELISA, chemical genetic approach); assay type: cell-based; conditions: phospho-tyrosine based ELISA
Source text: E) depicts that LFA-1, induced phosphorylation of Pyk2, and Syk is dependent on PKC. We screened for the inhibition of sICAM-2, induced Pyk2, and Syk phosphorylation by chemical inhibitors to tyrosine kinases using a phospho-tyrosine based ELISA. Pyk2, phosphorylation was abrogated in the presence of PKC inhibitors bisindolymaleimide II (BIM II) and staurosporine (STP), in addition to tyrphostin A9, a specific Pyk2, inhibitor. a Pyk2, phosphorylation was also affected by inhibitors of phospholipase Cg (neomycin), inhibitors of Syk (piceatannol), and PKC inhibitor BIM I. Syk phosphorylation was completely abolished by inhibition of Pyk2, PLCg1, and strongly affected by PKC inhibitors. Thus, both Pyk2, and Syk phosphorylations were dependent on PKC activity, while Syk phosphorylation was additionally dependent on PLCg1, and Pyk2, activity. It was not possible to assess specific PKC isozymes by this method.
A chemical genetic approach was undertaken to determine the hierarchy of PKC, Pyk2, PLCg1, and Syk activities in response to sICAM-2, stimulus by verifying phosphorylation status of each kinase in the presence of respective chemical inhibitors. Inhibition of PKC with BIM II abrogated phosphorylation of Pyk2, PLCg1, and Syk. Inhibition of PLCg1, by neomycin abrogated phosphorylation of Syk, with no inhibition observed for Pyk2. […] Thus, the upstream signaling events from LFA-1, to Raf-1, appear to involve PKC/Pyk2/PLCg1/Syk. […] We are currently pursuing these complexes in a separate study.

LFA-1 [2] = biological target: LFA-1 (Homo sapiens, UniProt P20701); conditions: cited from earlier work
LFA-1 (Homo sapiens, UniProt P20701), sequence (P20701 26-1170): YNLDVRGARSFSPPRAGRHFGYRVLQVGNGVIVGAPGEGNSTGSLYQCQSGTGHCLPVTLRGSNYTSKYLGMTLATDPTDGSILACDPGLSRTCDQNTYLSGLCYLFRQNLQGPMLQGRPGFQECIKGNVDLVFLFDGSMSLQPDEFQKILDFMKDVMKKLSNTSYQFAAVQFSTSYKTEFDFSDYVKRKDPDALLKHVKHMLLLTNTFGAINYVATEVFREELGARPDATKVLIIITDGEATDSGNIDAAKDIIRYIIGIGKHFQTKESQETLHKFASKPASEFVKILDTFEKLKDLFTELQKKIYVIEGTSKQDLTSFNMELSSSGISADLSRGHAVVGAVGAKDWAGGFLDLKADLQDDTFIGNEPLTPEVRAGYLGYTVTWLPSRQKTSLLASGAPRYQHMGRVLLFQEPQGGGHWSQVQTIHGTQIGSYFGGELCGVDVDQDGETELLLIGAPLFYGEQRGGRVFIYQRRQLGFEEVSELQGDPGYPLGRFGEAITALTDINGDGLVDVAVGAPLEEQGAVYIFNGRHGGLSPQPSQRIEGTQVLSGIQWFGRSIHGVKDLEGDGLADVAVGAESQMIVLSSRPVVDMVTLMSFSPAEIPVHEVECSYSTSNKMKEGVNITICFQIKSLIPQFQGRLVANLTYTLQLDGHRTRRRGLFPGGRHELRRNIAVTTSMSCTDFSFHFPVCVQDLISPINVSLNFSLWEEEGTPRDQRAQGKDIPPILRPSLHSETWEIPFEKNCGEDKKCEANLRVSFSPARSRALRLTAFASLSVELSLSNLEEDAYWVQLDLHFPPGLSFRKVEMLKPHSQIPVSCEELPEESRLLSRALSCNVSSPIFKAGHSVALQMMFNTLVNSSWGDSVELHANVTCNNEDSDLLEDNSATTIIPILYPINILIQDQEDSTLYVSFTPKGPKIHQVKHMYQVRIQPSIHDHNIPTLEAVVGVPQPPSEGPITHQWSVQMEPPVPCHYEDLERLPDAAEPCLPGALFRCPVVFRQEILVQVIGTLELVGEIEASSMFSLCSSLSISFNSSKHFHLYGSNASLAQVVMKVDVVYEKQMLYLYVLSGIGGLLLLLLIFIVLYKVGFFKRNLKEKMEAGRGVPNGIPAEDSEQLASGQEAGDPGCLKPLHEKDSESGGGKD
LFA-1 (Homo sapiens, UniProt P20701), sequence (P05107 23-769 partner): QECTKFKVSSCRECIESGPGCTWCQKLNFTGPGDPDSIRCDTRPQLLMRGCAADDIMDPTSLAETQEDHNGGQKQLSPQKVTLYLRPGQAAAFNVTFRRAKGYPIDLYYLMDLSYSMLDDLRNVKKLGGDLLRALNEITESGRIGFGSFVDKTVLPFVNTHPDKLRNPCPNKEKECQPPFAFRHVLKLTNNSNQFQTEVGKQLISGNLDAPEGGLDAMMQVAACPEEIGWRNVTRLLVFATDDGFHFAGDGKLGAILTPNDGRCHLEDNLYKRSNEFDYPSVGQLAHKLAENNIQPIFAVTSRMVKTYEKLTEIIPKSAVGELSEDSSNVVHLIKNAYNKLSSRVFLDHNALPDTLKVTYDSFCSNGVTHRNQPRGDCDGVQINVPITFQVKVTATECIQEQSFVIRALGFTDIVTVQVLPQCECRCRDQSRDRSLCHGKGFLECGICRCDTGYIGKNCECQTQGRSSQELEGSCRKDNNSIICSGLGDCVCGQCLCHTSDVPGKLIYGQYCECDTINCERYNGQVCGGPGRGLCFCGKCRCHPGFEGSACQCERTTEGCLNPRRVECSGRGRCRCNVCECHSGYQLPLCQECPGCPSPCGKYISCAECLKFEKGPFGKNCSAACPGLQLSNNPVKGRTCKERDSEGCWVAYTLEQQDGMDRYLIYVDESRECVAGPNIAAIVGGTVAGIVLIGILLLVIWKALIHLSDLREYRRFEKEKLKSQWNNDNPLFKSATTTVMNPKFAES

Compound: O=C(O)CN(CCN(CC(=O)O)CC(=O)O)CC(=O)O [EDTA]
effect on ICAM-2 induced p44/42 MAPK phosphorylation (p44/42 MAPK): diminished

Compound: Cc1cc(O)c2c(c1)C(=O)c1cc(O)cc(O)c1C2=O [Emodin]
effect on ICAM-2 induced p44/42 MAPK phosphorylation (p44/42 MAPK): no effect

Compound: O=S(=O)(NCCNC/C=C/c1ccc(Br)cc1)c1cccc2cnccc12 [H-89]
effect on ICAM-2 anti-apoptotic effect, other kinase inhibitors (NIH3T3): not abrogated

Compound: CCCCCCCCCCCCCC(=O)O[C@@H]1[C@@H](C)[C@@]2(O)[C@@H](C=C(CO)C[C@]3(O)C(=O)C(C)=C[C@@H]23)[C@@H]2C(C)(C)[C@]12OC(C)=O [PMA, phorbol myristelated acetate]
LFA-1 activation (mAb24 binding) (LFA-1 [1]): induction

Compound: C[S+]([O-])c1ccc(-c2nc(-c3ccncc3)c(-c3ccc(F)cc3)[nH]2)cc1 (stereo not drawn) [SB 203580]
effect on ICAM-2 anti-apoptotic effect, other kinase inhibitors (NIH3T3): not abrogated

Compound: N#CC(=C(/N)Sc1ccccc1N)/C(C#N)=C(\N)Sc1ccccc1N [U0126]
effect on ICAM-2 anti-apoptotic effect, other kinase inhibitors (NIH3T3): not abrogated

Compound: COC(=O)Nc1nc2cc(C(=O)c3cccs3)ccc2[nH]1 [nocodazole]
LFA-1 activation (mAb24 binding) (LFA-1 [1]): full activation of LFA-1 | effect on ICAM-2 induced p44/42 MAPK phosphorylation (p44/42 MAPK): diminished

Compound: CN[C@@H]1C[C@H]2O[C@@](C)([C@@H]1OC)n1c3ccccc3c3c4c(c5c6ccccc6n2c5c31)C(=O)NC4 [staurosporine]
sICAM-2 induced Pyk2 phosphorylation (Pyk2): abrogated | ICAM-2 induced survival signal (NIH3T3; PKC isozyme inhibitors, system not specified): did not abrogate

LFA-1 activation (mAb24 binding) (LFA-1 [1]): full activation of LFA-1
Compound: CC(=O)O[C@H]1C(=O)[C@@]2(C)[C@H]([C@H](OC(=O)c3ccccc3)[C@]3(O)C[C@H](OC(=O)[C@H](O)[C@@H](NC(=O)c4ccccc4)c4ccccc4)C(C)=C1C3(C)C)[C@]1(OC(C)=O)CO[C@@H]1C[C@@H]2O [taxol]
effect on ICAM-2 induced p44/42 MAPK phosphorylation (p44/42 MAPK): diminished

Compound: P1: synthesized peptide of ICAM-2's first Ig domain (P1, amino acids 21-42) (GSDEKVFEVHVRPKKLAVEPKG; UniProt P13598 21-42, looked up, fragment)
concentration inducing LFA-1 mediated adhesion (LFA-1 [2]; bulk cellular adhesion assay): 62 µM | calcium influx (LFA-1 [2]): did not induce calcium influx | induction of the active conformation of LFA-1 (LFA-1 [2]): did not induce the active conformation of LFA-1
